According to paper PMC5142810, “Structure of protein O-mannose kinase reveals a unique active site architecture” (eLife, 2016):

Assays:
CoPOMK = target: T1, CoPOMK (Capsaspora owczarzaki, UniProt A0A0D2WXW5); experiment: radiometric kinase assay, […] incorporation, C18 cartridge; type: biochemical; settings: 20 μM GGM-MU, 100 μM ATP, 10 mM MnCl2, 50 mM HEPES pH 7.5, 20 °C, 30 min
T1 construct: gene CAOG_008172; residues 112-610, 6xHis-MBP fusion (psMBP2), secreted from Hi5 insect cells (baculovirus)
T1 sequence (A0A0D2WXW5 112-610): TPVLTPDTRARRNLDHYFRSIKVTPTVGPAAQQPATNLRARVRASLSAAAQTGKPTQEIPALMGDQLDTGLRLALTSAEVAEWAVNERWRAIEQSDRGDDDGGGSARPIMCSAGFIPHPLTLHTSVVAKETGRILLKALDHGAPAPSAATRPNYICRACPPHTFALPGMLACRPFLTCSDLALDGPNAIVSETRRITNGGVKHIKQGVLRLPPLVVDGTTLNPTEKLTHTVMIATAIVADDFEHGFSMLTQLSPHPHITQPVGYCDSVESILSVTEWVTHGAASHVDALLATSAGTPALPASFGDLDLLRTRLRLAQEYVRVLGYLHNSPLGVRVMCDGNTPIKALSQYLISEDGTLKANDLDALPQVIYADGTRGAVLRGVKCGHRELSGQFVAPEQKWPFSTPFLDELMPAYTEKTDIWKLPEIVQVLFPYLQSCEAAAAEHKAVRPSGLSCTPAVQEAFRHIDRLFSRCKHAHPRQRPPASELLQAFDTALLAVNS

HsPOMK = target: T2, HsPOMK (Homo sapiens, UniProt Q9H5K3); experiment: as above; type: biochemical; settings: 20 μM GGM-MU, 100 μM ATP, 10 mM MnCl2, 50 mM HEPES pH 7.5, 20 °C, 30 min
T2 construct: gene POMK; lumenal kinase domain, residues 49-350, 6xHis-MBP fusion kept, secreted from Hi5 insect cells (baculovirus)
T2 sequence (Q9H5K3 49-350): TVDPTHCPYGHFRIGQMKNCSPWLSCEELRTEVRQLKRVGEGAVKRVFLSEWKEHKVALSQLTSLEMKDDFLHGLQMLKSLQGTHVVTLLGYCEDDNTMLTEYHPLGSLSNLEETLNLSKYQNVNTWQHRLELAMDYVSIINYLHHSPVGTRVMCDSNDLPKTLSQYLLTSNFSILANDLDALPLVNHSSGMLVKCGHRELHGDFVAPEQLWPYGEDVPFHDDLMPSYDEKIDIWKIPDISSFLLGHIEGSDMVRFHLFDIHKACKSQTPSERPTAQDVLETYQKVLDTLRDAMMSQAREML

DrPOMK = target: T3, DrPOMK (Danio rerio, UniProt Q5U3W1); experiment: 1H NMR titration, Man H1 peak intensity; type: binding; settings: read-out: dissociation constant
T3 construct: gene pomk; lumenal kinase domain, residues 49-347, secreted from Hi5 insect cells (baculovirus); N-terminal 6xHis-MBP removed by TEV for crystallization
T3 sequence (Q5U3W1 49-347): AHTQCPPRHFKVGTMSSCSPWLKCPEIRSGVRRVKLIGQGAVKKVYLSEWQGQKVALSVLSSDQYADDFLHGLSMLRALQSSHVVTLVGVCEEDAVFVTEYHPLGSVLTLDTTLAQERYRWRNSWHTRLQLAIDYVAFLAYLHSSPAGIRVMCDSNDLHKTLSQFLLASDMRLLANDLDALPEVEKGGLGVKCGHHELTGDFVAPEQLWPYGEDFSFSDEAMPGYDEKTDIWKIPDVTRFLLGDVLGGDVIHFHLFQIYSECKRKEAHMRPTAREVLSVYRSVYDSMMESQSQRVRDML

radiometric kinase assay, 32P incorporation, C18 cartridge (CoPOMK): POMK homologues phosphorylates GGM-MU.
radiometric kinase assay, 32P incorporation, C18 cartridge (HsPOMK): POMK homologues phosphorylates GGM-MU.
Kd (DrPOMK): 30.2 µM
Structure (SMILES): CC(=O)N[C@H]1[C@H](O[C@H]2[C@H](O)[C@@H](CO)O[C@@H](O[C@H]3[C@H](O)[C@H](O)[C@@H](Oc4ccc5c(C)cc(=O)oc5c4)O[C@@H]3CO)[C@@H]2NC(C)=O)O[C@H](CO)[C@H](O)[C@@H]1O [GGM-MU]
